{"source": "paper PMC6381791", "about": "“Filamentous Aggregates Are Fragmented by the Proteasome Holoenzyme” (Cell Reports, 2019)", "key": {"[1]": {"target": "T1, α-synuclein (αS), fibrils (Homo sapiens, UniProt P37840)", "T1 construct": "gene SNCA; untagged wild-type recombinant from E. coli BL21(DE3) pLysS; fibrils assembled in PBS with shaking", "experiment": "TIRF single-aggregate fluorescence", "format": "binding", "conditions": "30 nM pFTAA in PBS, 100 nM αS (monomer equivalent); binds amyloid fibrils"}, "[2]": {"target": "T2, 26S proteasome holoenzyme (proteolytic core sites) (Homo sapiens, UniProt P28074)", "T2 construct": "gene PSMB5; 26S holoenzyme (20S core with one or two 19S caps) purified from HEK293T via Rpn11-His6-TEV-biotin, TEV eluted; with Proteasome subunit beta type-1; Proteasome subunit beta type-2; Proteasome subunit beta type-3; Proteasome subunit beta type-4; Proteasome subunit alpha type-1; Proteasome subunit alpha type-2; Proteasome subunit alpha type-3; Proteasome subunit alpha type-4; Proteasome subunit alpha type-5; Proteasome subunit alpha type-6; Proteasome subunit alpha type-7; 26S proteasome non-ATPase regulatory subunit 14", "experiment": "AMC fluorescence ([…] nm)", "format": "biochemical", "conditions": "1 μM substrate, 40 nM proteasome, alone or with heparin or tau aggregates"}}, "note": "Numbered stars: 1 amine (or outer) side, 2 acyl side, 3 side chain; on linkers, the order of the positions; unused ones are H or OH. Peptide text beside a SMILES is read from it. * marks the point of attachment. AMC = Cc1cc(=O)oc2cc(N*)ccc12; Suc = O=C(CCC(=O)[*:2])[*:1]"}
{"smiles": "O=C(O)Cc1cc(-c2ccc(C(=O)O)s2)sc1-c1ccc(-c2sc(-c3ccc(C(=O)O)s3)cc2CC(=O)O)s1", "note": "[pFTAA]", "values": [{"measurement": "TIRF single-aggregate fluorescence", "setting": "[1]", "result": "Fibrils assembled from αS could be reproducibly detected"}]}
{"smiles": "Cc1cc(=O)oc2cc(NC(=O)[C@H](Cc3ccc(O)cc3)NC(=O)[C@@H](NC(=O)[C@H](CC(C)C)NC(=O)[C@H](CC(C)C)NC(=O)CCC(=O)O)C(C)C)ccc12", "note": "[LLVY-AMC] (Suc-LLVY-{AMC})", "values": [{"measurement": "AMC fluorescence (340/440 nm)", "setting": "[2]", "result": "proteasomal peptidase activity against a model substrate, suc-Leu-Leu-Val-Tyr-7-amino-4-methylcoumarin (LLVY-AMC)"}]}
